The IC50 is the midpoint of a concentration-inhibition curve.

Each structure is given as a SMILES string.

This test has as its system Palmitoyl CoA oxidation. Nature of the test: Mitochondrial assay: palmitoyl CoA oxidation. The following applies: Rat heart mitochondria, 16 µM 1-14C palmitoyl CoA, 15 min at 30°C, 14C bicarbonate counted; read-out: PalmCoA IC50. The test is classed as biochemical. On the procedure: Rat heart mitochondria were isolated by the method ofNedergard and Cannon (Methods in Enzymol. 55, 3, 1979).
Palmitoyl CoA oxidation - The Palmityl CoA oxidation was carried out in a total volume of 100 µL containing the following agents: 110 mM KCl, 33 mM Tris buffer at pH 8, 2 mM KPi, 2 mM MgCl2, 0.1 mM EDTA, 14.7 µM defatted BSA, 0.5 mM malic acid, 13 mM carnitine, 1 mM ADP, 52 µg of mitochondrial protein, and 16 µM 1-14C palmitoyl CoA (Sp. Activity 60 mCi/mmole; 20 µCi/mL, using 5 µL per assay). The compounds of this invention were added in a DMSO solution at the following concentrations: 100 µM, 30 µM, and 3 µM. In each assay, a DMSO control was used. After 15 min at 30°C, the enzymatic reaction was centrifuged (20,000 g for 1 min), and 70 µL of the supernatant was added to an activated reverse phase silicic acid column (approximately 0.5 mL of silicic acid). The column was eluted with 2 mL of water, and 0.5 mL of the eluent was used for scintillation counting to determine the amount of ^14C trapped as ^14C bicarbonate ion.

Turning to `Cc1nc2cc(OC[C@H](O)CN3CCN(CC(=O)Nc4cccc5c4CCC5)CC3)ccc2s1`, the IC50 came to 15 µM.

Consider `Cc1nc2cc(OC[C@H](O)CN3CCN(CC(=O)Nc4ccc(Oc5ccccc5)cc4)CC3)ccc2s1`, for which the IC50 was 0.33 µM. As for `O=C(CN1CCN(C[C@@H](O)COc2ccc3oc(-c4ccccc4)nc3c2)CC1)Nc1cccc(Oc2ccccc2)c1`, the figure is 8.5 µM; as for `Cc1nc2cc(OC[C@H](O)CN3CCN(CC(=O)Nc4cccc(-c5ccccc5)c4)CC3)ccc2s1`, 0.18 µM; as for `CCn1c2ccccc2c2cc(NC(=O)CN3CCN(C[C@@H](O)COc4ccc5sc(C)nc5c4)CC3)ccc21`, 0.85 µM. The same measure for `O=C(CN1CCN(C[C@@H](O)COc2ccc3oc(-c4ccccc4)nc3c2)CC1)Nc1ccc2ncccc2c1`: 6.2 µM; for `Cc1nc2cc(OC[C@H](O)CN3CCN(CC(=O)Nc4cccc5cccnc45)CC3)ccc2s1`: 5.2 µM.

Regarding `Cc1nc2cc(OC[C@H](O)CN3CCN(CC(=O)Nc4nc(-c5ccc(Cl)cc5)cs4)CC3)ccc2s1`, the IC50 was found to be 7 µM. As for `Cc1nc2cc(OC[C@H](O)CN3CCN(CC(=O)Nc4nc(-c5ccc(Cl)cc5)cs4)C[C@@H]3C)ccc2s1`, the figure is 0.4 µM; as for `Cc1nc2cc(OC[C@H](O)CN3CCN(CC(=O)N[C@H]4CCCc5ccccc54)CC3)ccc2s1`, 0.08 µM; as for `Cc1nc2cc(OC[C@H](O)CN3CCN(CC(=O)N[C@@H](C)c4ccc5ccccc5c4)CC3)ccc2s1`, 0.85 µM. As for `Cc1nc2cc(OC[C@H](O)CN3CCN(CC(=O)N[C@@H](C)c4ccccc4)CC3)ccc2s1`, the figure is 4.4 µM.

The values are drawn from EP1806346B1, “Substituted piperazine compounds and their use as fatty acid oxidation inhibitors” (CV THERAPEUTICS, INC., priority 2002, dated 2004).
